# Source: patent publication US7951548B2, “IL-13 production inhibitor” (Takeda Pharmaceutical Company Limited, priority 2005, dated 2011)
# Experiments:
# [1] = tested on: rat peritoneal mast cells; assay: Expression of IL-13 in rat peritoneal mast cells (TaqMan PCR, GAPDH corrected); assay type: cell-based
# Procedure: Rat peritoneal mast cells (hereinafter RPMC) were prepared as follows. Ice-chilled mast cell medium (hereinafter MCM; 150 mM NaCl, 3.7 mM KCl, 3.0 mM NaH2PO4, 3.5 mM KH2PO4, 5.6 mM (D)-Glucose, 0.1% bovine serum albumin (hereinafter BSA), 0.1% gelatin, 10 U/ml heparin, pH 6.8) was injected into the peritoneal cavity in about 40 ml/animal. After some massage of the rat abdominal region for about 2 minutes, the peritoneal cavity was opened along the median line to drain the ascitic fluid. The ascetic fluid prepared was filtered through a cell strainer (Becton Dickinson) and centrifuged at 50×g for 7 minutes. The cells precipitated were suspended in MCM and centrifuged again at 50×g for 7 minutes. After the precipitated cells were resuspended in MCM, the suspension was layered on 2 ml of 32% (w/v) BSA solution (dissolved in 0.9% NaCl), which was allowed to stand at room temperature for 20 minutes. After centrifugation was conducted at ×300 g for 15 minutes at room temperature, the cells in the interphase between MCM and BSA solution were discarded and the precipitated cells were suspended in MCM. The suspension was centrifuged at ×300 g for 5 minutes to wash the cells twice. The precipitated cells were suspended in assay buffer (RPMI 1640 medium (Invitrogen), 0.1% BSA) and the cells were provided for the following experiment. […] RPMC was activated as follows. RPMC was suspended in assay buffer and 10 μg/ml of monoclonal mouse antibody DNP-IgE (Yamasa) was added thereto. The mixture was allowed to stand for 30 minutes on ice for passive sensitization. After centrifugation at ×300 g for 5 minutes, the precipitated cells were washed 3 times with assay buffer. RPMC suspended in assay buffer was dispensed into a 96 well V-bottomed plate in 2×10^5/well. The assay was performed at n=3 under the respective reaction conditions. After a plate was kept warm at 37° C. for 5 minutes, lysoPS (Sigma) of 3 μM in a final concentration or DNP-BSA (Carbiochem) of 100 ng/ml in a final concentration was added depending on the assay conditions and the plate was allowed to stand at 37° C. in a 5% CO2 incubator. The plate was ice-cooled 2, 4, 6 and 8 hours after to terminate the activation of RPMC. Centrifugation was performed at ×300 g for 5 minutes and the total RNA was extracted from the cells precipitated using RNeasy Mini Kit (Qiagen) in accordance with the protocol attached. The obtained total RNA was concentrated and dissolved in RNase-free H2O in accordance with the protocol attached. Next, using 250 ng of the total RNA, reverse transcription was performed by the following procedure using SuperScript II ReverseTranscriptase (Invitrogen) to prepare single-stranded cDNA. After 0.5 μg of Oligo (dT) 12-18 primer (Invitrogen) and 1 μl of 10 mM dNTP (Invitrogen) were added to the total RNA solution and then RNase-free H2O was added to make the whole volume 12 μl, incubation was performed at 70° C. for 10 minutes followed by ice cooling for a minute. After adding 4 μl of 5× First-Strand Buffer (attached to SuperScript II ReverseTranscriptase), 2 μl of 0.1M DTT (attached to SuperScript II ReverseTranscriptase), 1 μl of RNaseOUT (Invitrogen) and 1 μl of SuperScript II ReverseTranscriptase, incubation was performed at 42° C. for 50 minutes and then at 70° C. for 15 minutes, followed by ice cooling for 5 minutes. The thus prepared cDNA was purified using Ethachinmate in accordance with the protocol attached and dissolved in Tris-EDTA Buffer (Fluka).
# In TaqMan PCR below, rIL-13-tF (SEQ ID NO: 24) and rIL-13-tR (SEQ ID NO: 25) were used as primers and rIL-13-tP (SEQ ID NO: 26) as a probe for quantification of rat IL-13 (interleukin-13) and rIL-13 standard (SEQ ID NO: 27) was used as a standard. TaqMan Rodent GAPDH Control Reagents VIC Probe (Applied Biosystems) were used as primers and a probe for quantification of GAPDH, and rGAPDH standard (SEQ ID NO: 28) was used as a standard. […]
# [2] = tested on: mouse bone marrow-derived mast cells; assay: MAPK activation: phosphorylation of ERK1/2 in mouse bone marrow-derived mast cells (BMMC); assay type: cell-based; settings: BMMC
# Procedure: BMMC was established by collecting bone marrow fluid from the femur of male BALB/c mouse (Japan SLC), rinsing in RPMI1640 (Nikken Bio Medical Laboratory) and then incubating in a medium (RPMI1640, 50% WEHI-3 culture supernatant, 10% FBS (GIBCO), penicillin/streptomycin (BIOWHITTAKER), Non-Essential amino acids (GIBCO)) for 4 weeks. The cells were incubated in a CO2 incubator immediately before assay. Pertussis toxin (hereinafter PTX) was added to the cells in a final concentration of 0.1 μg/mL 4 hours before assay. BMMC was washed in ice-chilled assay buffer (Tyrode Buffer, 0.01% fatty acid free-BSA (SIGMA), 1 mM CaCl2, 1 mM MgCl2), and suspended in 2×10^6 cells/ml. The suspension was dispensed in a 1.5 mL tube followed by preincubation for 15 minutes at 37° C. The lysoPS solution and A23187 solution (Wako Pure Chemicals) as a positive control were added in equimolar amounts. After incubation at 37° C., the reaction was terminated by quenching. The cells were precipitated by centrifugation and the assay buffer was aspirated. After washing in PBS, 1×SDS sample buffer/DTT was added to the cells to lyse the cells. After ultrasonication for 15 seconds, the sample was heated at 95° C. for 5 minutes followed by quenching.
# Detection by SDS-PAGE and western blotting were performed as follows. After separation using 10% Bis-Tris gel (Invitrogen), the gel was transferred to Immuno-Blot PVDF Membrane (BIO-RAD). The membrane was blocked with Block Ace (Dai-Nippon Pharmaceutical) and incubated at 4° C. overnight with a primary antibody (Phospho-p42/p44 MAP Kinase (Thr202/Thr204) Antibody (CST) or p42/p44 MAP Kinase Antibody (CST)) and further incubated at room temperature for an hour using a secondary antibody (Anti-rabbit IgG (CST)). The membrane after the antibody reaction was visualized by chemiluminescence using ECL PLUS (Amersham Biosciences). Detection and image analysis were performed using LAS1000 (FUJI FILM).
# [3] = antigen (DNP-BSA 100 ng/ml)+lysoPS 3 μM, 4 hours after the stimulation
# [4] = antigen+lysoPS 3 μM, 6 after the stimulation
# [5] = antigen+lysoPS 3 μM, 8 hours after the stimulation
substance,measurement,setting,value
lysophosphatidylserine [lysoPS],"expression level of IL-13 after GAPDH correction, compared to stimulation by the antigen alone",[1]; [3],about 36 times
same,"expression level of IL-13 after GAPDH correction, compared to the level without any stimulation",[1]; [3],about 27 times
same,"expression level of IL-13, compared to stimulation by the antigen alone",[1]; [4],about 19 times
same,"expression level of IL-13, compared to the level without any stimulation",[1]; [4],about 13 times
same,"expression level of IL-13 after GAPDH correction, compared to stimulation by the antigen alone",[1]; [5],about 27 times
same,"expression level of IL-13 after GAPDH correction, compared to the level without any stimulation",[1]; [5],about 13 times
same,expression level of IL-13 (in words),[1]; stimulated by the antigen+lysoPS,marked increase in expression
same,phosphorylation of ERK1/2 30 minutes after the stimulation,[2],the phosphorylation was observed
same,time of maximum response of ERK1/2 phosphorylation after the stimulation,[2],about 2 minutes
